Measured values: ChEMBL document CHEMBL1799914, “Design and synthesis of small molecule RhoA inhibitors: a new promising therapy for cardiovascular diseases?” (J Med Chem, 2011)

Tests used:
[1] = system: Aorta; assay: Vasorelaxant activity in Sprague-Dawley rat endothelium thoracic aortic ring assessed as inhibition of phenylephrine-induced submaximal contraction measured after 5 mins
[2] = system: Aorta; assay: Vasorelaxant activity in Sprague-Dawley rat endothelium thoracic aortic ring assessed as inhibition of phenylephrine-induced submaximal contraction at 180 uM measured after 5 mins; assay type: functional

OC/C=C/c1cccc(Nc2cnc3ccccc3n2)c1
IC50 [1]: 136 µM
inhibition at 180 µM [2]: 78.6%

O=C(O)/C=C/c1cccc(Nc2ccc3ccccc3n2)c1
IC50 [1]: 161 µM
inhibition at 180 µM [2]: 55.9%
